We go through 1 substance from US11793861B2, “PTH prodrugs” (ASCENDIS PHARMA BONE DISEASES A/S, priority 2016, dated 2023).

For data set [1], the system named is thyroparathyroidectomised (TPTx) rats. The experiment in a line: Pharmacodynamic actions in thyroparathyroidectomised (TPTx) rats, 28-days daily subcutaneous injections. The data set is classed as in vivo, SD rats. The procedure:
Quantitative measurements of serum calcium (sCa), urinary calcium and serum phosporous (sP) were performed on a Roche-Hitachi P800 modular biochemistry instrument.
Rats subjected to thyroparathyroidectomy (TPTx) by blunt dissection are unable to produce parathyroid hormone, PTH, the major regulator of calcium homeostasis. […] Additionally, one group of sham operated rats (n=9) representing normophysiological background control were also given vehicle. Serum calcium (sCa) and phosporous (sP) levels in the animals were measured pre- and post-dose on days 1, 6, 12 and 27. Moreover, bone turnover markers (P1NP and CTx) were measured and bone quality assessed by ex vivo pQCT.

For data set [2] the following is noted: cited from earlier work.

“PTH(1-84): Natpara®, PTH(1-84), approved by the FDA for hypoparathyroidism; the current standard of care (SEQ ID NO:1)”: in data set [1] (28 days treatment), the “trabecular BMD compared to both control groups” value is on record as “significant increase”. Further, in data set [1] (TPTx rats, daily sc), the “effect on serum phosphorous (sP)” value is “minimal decrease”. Also, the “effect on serum calcium (sCa)” value in data set [1] (TPTx rats, daily sc, 18 at […], PTH(1-84) at 7.3 nmol/kg/d) was “did not lead to increase in sCa”. In data set [1] (TPTx rats, 18 at […], PTH(1-84) at 7.3 nmol/kg/d, sc), the “serum calcium (sCa) at day 12” value is on record as 8.1 mg/dL. For the same substance, the “trabecular and cortical BMD in vertebrae” value in data set [1] (following 28 days of treatment) is recorded as “anabolic effect”. For the same substance, the “PTH Cmax” value in data set [2] (currently approved doses) was 0.3 ng/mL. Also, the “control of urinary calcium excretion” value in data set [2] (daily injections, FDA review) is recorded as “failed to provide adequate control”. The “incidence of hypercalcemia and hypocalcemia compared to placebo” value in data set [2] (in vivo) is recorded as “did not improve”.
